US6150367A, “1-[4-arylpiperazin-1-yl]-3-[2-oxopyrrolidin/piperidin-1-yl]propanes and their use in medical treatments” (Council of Scientific & Industrial Research, priority 1997, dated 2000)

How the values were obtained:
[1] = system: Langendorff perfused rat heart; assay: Compound at reperfusion after brief (16 min.) ischemic insult (Table 3); conditions: 0.001 ug/ml at reperfusion
anaesthetized cat = assay: Effect on blood pressure and adrenaline vasopressure response in anaesthetized cat, i.v. (Table 2); type: in vivo; conditions: for inhibition at 2 µmol/kg / inhibition at 10 µmol/kg: Felis catus, iv
Method: (§1) (a) Cats (2.6-4.0 kg) of either sex anaesthetized with pentobarbitone sodium (40 mg/kg i.v.) and showing basal mean arterial blood plessure below 150 mm (Hg) were categorised as normotensive and ahove 150 mm Hg as hypertensive. Arterial blood pressure (EP) was recorded from one of the carotid artery through a stathum P23 DC pressure transducer and 7P1 low level DC preamplifier on a Grass Model P7 Polygraph, Signals from 7P1 preamplifier were used to trigger 7P4 Tachograph preamplifier for recording the heart rate (HR). Right femoral vein and Trachea were cannulated for intravenous injections and artificial ventilation respectively. Control responses to intravenous injection of noradrenaline (2-4 ug); acetyl choline (1-2 ug); histamine (1-2 ug) and isoprenaline (1-2 ug) were taken before and after the administration of test doses of each compounds.

[2] = system: Naturally occurring hypertensive cat; assay: Effect on blood pressure, heart rate and adrenaline vasopressor response, anaesthetized naturally occurring hypertensive cat; type: in vivo
Method: (§2) 2. Effect on blood pressure, heart rate and adrenaline vasopressor response of anaesthetized (pentobarbitone sodium 40 & 60 mg/kg i.p. in cat and rat respectively) normotensive & hypertensive rat & cat model preparations.
as §1

Spinal transected cat = assay: Site of action: spinal transected cat; type: in vivo; conditions: dose 2-10 umol/kg i.d.
[3] = system: histamine induced bronchoconstriction; assay: Konzett and Rossler preparation, histamine induced bronchoconstriction; conditions: in vivo
Excerpt: (iv) Konzett and Rossler preparation:

Site of action: ICV = type: in vivo; conditions: dose 0.34-1.36
[4] = system: Isolated Guinea pig ileum; assay: Isolated Guinea pig ileum preparation, antihistaminic activity; conditions: 0.5-5.0 ug/ml
Rat aortic ring = Rat aortic ring preparation, NE induced contraction
Excerpt: (v) Rat aortic ring preparation:

[5] = system: Hypertensive rat model preparation; assay: Effect on blood pressure, heart rate and adrenaline vasopressor response, hypertensive rat model preparation; type: in vivo
Method: as §2

cat [6] = assay: Comparative antihypertensive effect with clinically used antihypertensive drugs at 2 uMol/kg i.v. in cat; type: in vivo
Excerpt: (4) Comparative antihypertensive effect with clinically used antihypertensive drugs at 2 uMol/kg i.v. dose in cat

[7] = Cardioprotective effect against myocardial stunning; conditions: in vivo
cat [8] = assay: In vivo drug antagonism studies at 2 uMol dose i.v. in cat; conditions: 2 uMol i.v.
Excerpt: (B) In viva Drug antagonism studies at 2 uMol dose i.v. in cat: […]

[9] = system: Langendorff perfused rat heart; assay: Langendorff perfused rat heart, prolonged global ischemia, compound given at reperfusion (Table 1)
Method: Further, in Langendorff perfused rat heart preparation subjected to even upto […]. global ischemia, the compound at 0.001 ug/ml conc. given at the time of reperfusion revived normal rhythmic contraction started within […]. (Table 1) and incidence of reperfusion induced arrhythmia were abolished.

Isolated aortic strip = assay: Isolated aortic strip, endothelin induced contraction
Excerpt: (i) Isolated aortic strip:

Normotensive cat = assay: Effect on blood pressure, heart rate and adrenaline vasopressor response, anaesthetized normotensive cat; type: in vivo
Method: as §2, §1

[10] = 0.001 ug/ml at reperfusion, 90 min. ischemic insult
[11] = 10^-6 M, ischemic insult 45 min

SMILES: O=C1CCCN1CCCN1CCN(c2ccccn2)CC1 [2-Pyridyl, n=1]
- Onset [1]: 2.0 min
- Percentage recovery 15 min. [1]: 47.60%
- Percentage recovery 30 min. [1]: 71.40%
- Dur. (anaesthetized cat; 2.0 umol/kg i.v.): 16 min
- Dur. (anaesthetized cat; 10.0 umol/kg i.v.): 43 min
- inhibition at 2 µmol/kg (anaesthetized cat; 2.0 umol/kg i.v.): 40%
- inhibition at 10 µmol/kg (anaesthetized cat; 10.0 umol/kg i.v.): -20 to 0%

SMILES: COc1ccccc1N1CCN(CCCN2CCCC2=O)CC1 [C6 H4-2-OCH3, n=1]
- Onset [1]: 2.0 min
- Percentage recovery 15 min. [1]: 45.40%
- Percentage recovery 30 min. [1]: 59.09%
- Dur. (anaesthetized cat; 2.0 umol/kg i.v.): 19 min
- Dur. (anaesthetized cat; 10.0 umol/kg i.v.): 67 min
- inhibition at 2 µmol/kg (anaesthetized cat; 2.0 umol/kg i.v.): 47%
- inhibition at 10 µmol/kg (anaesthetized cat; 10.0 umol/kg i.v.): > 100%

SMILES: O=C1CCCN1CCCN1CCN(c2cccc(Cl)c2)CC1 [Example 2, 1-[4-(3-chlorophenyl)piperazin-1-yl]-3-[2-oxopyrrolidin-1-yl]propane]
- Percentage recovery 15 min. ([1]; listed as C6 H4 -3-C1, n=1): 50.00%
- Percentage recovery 30 min. ([1]; listed as C6 H4 -3-C1, n=1): 88.80%
- Onset ([1]; listed as C6 H4 -3-Cl, n=1): 3.0 min
- Percentage recovery 15 min. ([1]; listed as C6 H4 -3-Cl, n=1): 31.50%
- Percentage recovery 30 min. ([1]; listed as C6 H4 -3-Cl, n=1): 39.40%

SMILES: O=C1CCCN1CCCN1CCN(c2ccc(Cl)cc2)CC1 [Example 3, 1-[4-(4-chlorophenyl)piperazin-1-yl]-3-[2-oxopyrrolidin-1-yl]propane]
- Percentage recovery 15 min. [1]: 87.50%
- Percentage recovery 30 min. [1]: 120.80%

SMILES: O=C1CCCN1CCCN1CCN(c2cccc(F)c2)CC1 [Example 4, 1-[4-(3-fluorophenyl)piperazin-1-yl)-3-[2-oxopyrrolidin-1-yl]propane]
- Percentage recovery 15 min. [1]: 120.00%
- Percentage recovery 30 min. [1]: 180.00%

SMILES: O=C1CCCN1CCCN1CCN(c2ccc(F)cc2)CC1 [Example 5, 1-[4-(4-fluorophenyl)piperazin-1-yl]-3-[2-oxopyrrolidin-1-yl]propane]
- B.P. Fall (%) ([2]; 10 uMol/kg i.d.): 16%
- B.P. fall Dur. ([2]; 10 uMol/kg i.d.): 110 min
- B.P. Fall (%) ([2]; 20 uMol/kg i.d.): 22%
- B.P. fall Dur. ([2]; 20 uMol/kg i.d.): > 156.75 min
- B.P. Fall (%) (Spinal transected cat): 14-18%
- B.P. fall Dur. (Spinal transected cat): 15 to 30 min
- antihistaminic activity against histamine induced bronchoconstriction [3]: some antihistaminic activity
- Percentage recovery 15 min. [1]: 81.25%
- Percentage recovery 30 min. [1]: 78.12%
- B.P. Fall (%) (Site of action: ICV): 8-10%
- B.P. fall Dur. (Site of action: ICV): 10 to 15 min
- antihistaminic activity [4]: significant antihistaminic activity
- NE induced contraction (Rat aortic ring): inhibited
- B.P. Fall (%) ([5]; 5 uMol/kg i.d.): 27%
- B.P. fall Dur. ([5]; 5 uMol/kg i.d.): 51 min
- Heart rate Pre treatment ([5]; 5 uMol/kg i.d.): 350 beats/min
- Heart rate post treatment ([5]; 5 uMol/kg i.d.): 370 beats/min
- B.P. Fall (%) ([5]; 10 uMol/kg i.d.): 22%
- B.P. fall Dur. ([5]; 10 uMol/kg i.d.): 76 min
- B.P. Fall (%) ([5]; 20 uMol/kg i.d.): 29%
- B.P. fall Dur. ([5]; 20 uMol/kg i.d.): 100 min
- Dur. (cat [6]): 25 min
- cardioprotective effect against myocardial stunning [7]: cardioprotective effect against myocardial stunning at a much smaller dose than antihypertensive dose
- reduction of the fall in pressure (cat [8]; pretreatment with KATP blocker glibenclamide): only partially reduced
- alteration of antihypertensive effect (cat [8]; pretreatment with atropine sulphate, mepyramine maleate, propranolol or yohimbine): failed to alter
- Percentage recovery 15 min. [9, 10]: 81.25%
- Percentage recovery 30 min. [9, 10]: 87.15%
- incidence of reperfusion induced arrhythmia ([9]; 0.001 ug/ml at reperfusion, up to 90 min global ischemia): abolished
- Endothelin induced contraction (Isolated aortic strip): inhibited significantly
- Response to endothelin after washing the preparation (Isolated aortic strip; after washing): relaxation rather than contraction
- B.P. Fall (%) (Normotensive cat; 10 uMol/kg i.d.): 22%
- B.P. fall Dur. (Normotensive cat; 10 uMol/kg i.d.): 85 min
- B.P. Fall (%) (Normotensive cat; 20 uMol/kg i.d.): 21%
- B.P. fall Dur. (Normotensive cat; 20 uMol/kg i.d.): > 102.5 min

SMILES: CCc1ccc(N2CCN(CCCN3CCCC3=O)CC2)cc1 [Example 6, 1-[4-(4-ethylphenyl)piperazin-1-yl]-3-[2-oxopyrrolidin-1-yl]propane]
- Percentage recovery 15 min. [1]: 103.03%
- Percentage recovery 30 min. [1]: 60.60%

SMILES: CCc1ccccc1N1CCN(CCCN2CCCC2=O)CC1 [Example 7, 1-[4-(2-ethylphenyl)piperazin-1-Yl]-3-[2-oxopyrrolidin-1-yl]propane]
- Percentage recovery 15 min. [1]: 106.06%
- Percentage recovery 30 min. [1]: 136.36%

SMILES: O=C1CCCCN1CCCN1CCN(c2cccc(C(F)(F)F)c2)CC1 [Example 14, 1-[4-(3-trifluoromethylphenyl)piperazin-1-yl]-3-[2-oxopiperidin-1-yl]propane]
- Dur. (min.) (anaesthetized cat; 10.0 umol/kg i.v.): Tr

SMILES: COC(=O)C1=C(C)NC(C)=C(C(=O)OC)C1c1ccccc1[N+](=O)[O-] [Nifedipine, reference compound]
- Percentage recovery 15 min. [9, 11]: 0.66%
- Percentage recovery 30 min. [9, 11]: 0.0%
